Experimental data: patent US7452479B2, “Chemical base for fuel cell engine heat exchange coolant/antifreeze comprising 1,3-propanediol” (Shell Oil Company, priority 2001, dated 2008)
Where two headings read alike, the source gives them in different places.

What was measured:
[1] = Physical property data; format: physicochemical
[2] = ASTM D1177 freeze point; format: physicochemical
Description: FIG. 1 illustrates the aqueous solution freeze point characteristics of the 1,3-propanediol and GM 6043 (EG). […] This could be an indication that actual protection against hard, damaging freezing is actually better, approaching the effective protection point of the EG-based product. […] We feel that the antifreeze properties of the chemistry are acceptable. Indeed a 50% solution would provide adequate protection against freezing in most geographies. TC in FIG. 1 is an internal designation for the PDO aqueous solutions at 50, 55, and 60 volume percent PDO.

OCCO [EG, ethylene glycol]
Specific Gravity [1]: 1.115

OCCCO [PDO, 1,3-propanediol]
Freeze protection ([2]; 55% in water): equivalent to 50% EG
Appearance at the reported freeze point ([2]; aqueous solution): soft and slushy
Specific Gravity ([1]; 20° C.): 1.0526

CC(O)CO (centres unmarked) [PG, propylene glycol]
Specific Gravity ([1]; 20° C.): 1.032
